Data taken from patent US10604555B2, “GIP derivatives and uses thereof” (priority 2018, dated 2020).
Marks after values point to notes of the source that are not given here. *1 amine or outer side, *2 acyl side, *3 side chain or, on linkers, in order; H or OH if unused. Where a SMILES comes first, the peptide text is derived from it. Side-chain parts run from the residue outwards. [ ]: non-standard residue; d: D form. The star is where a group is joined. C18 diacid = O=C(O)CCCCCCCCCCCCCCCCC(=O)*; γGlu = O=C(O)[C@H](CCC(=O)[*:2])N[*:1]; AEEA = NCCOCCOCC(=O)O

Experiments:
[1] = tested on: diet-induced obese (DIO) mice; assay: Sub-chronic in vivo study in obese mice: food intake and body weight; set-up: species or system C57BL/6J mice; conditions: for effect on body weight (in words) / effect on food intake (in words) / Cumulative food intake (kcals) Day 14: DIO mice; for effect on body weight (in words) / effect on food intake (in words): Tables 6-8, compound 47 2 nmol/kg, GIP derivatives 30 nmol/kg; for Cumulative food intake (kcals) Day 14 / Absolute BW (grams) Day 14 / Change in BW (%) Day 14: once daily s.c.; for Cumulative food intake (kcals) Day 14 / Absolute BW (grams) Day 0 / Absolute BW (grams) Day 14 / Change in BW (%) Day 14: mean ± SEM; for Absolute BW (grams) Day 0: Day 0 (before treatment)
Source text: (§1) The purpose of this example is to assess the in vivo effect of the GIP derivatives of the present invention alone and in combination with a GLP-1 receptor agonist on food intake, body weight, and glucose tolerance in diet-induced obese (DIO) mice. The GLP-1 receptor agonist used for this example was a semaglutide-like molecule that has the same pharmacological properties as semaglutide, but a slightly different structure. The compound may be synthesised using methods known in the art, e.g. as described by methods of present Example 1 or as described in WO 2006/097537, example 4.
(§2) The animals were treated once daily with the GLP-1 receptor agonist (compound no. 47) and/or a GIP derivative of the present invention exemplified by compound no.'s 5, 25 and 31, to assess weight loss, efficacy and glucose tolerance. Animals and Diet
(§3) All animal protocols were approved by an Institutional Animal Care and Use Committee and Ethical Review Committee of Novo Nordisk. Animals were housed according to Novo Nordisk rodent housing standards, and were given ad libitum access to food and water under controlled lighting (12 h:12 h light/dark cycle; lights off 18:00-06:00), temperature (23±2° C.) and relative humidity (50±20%) conditions. DIO male C57BL/6J mice maintained on a high fat diet (45% kcal fat, RD12451, Research Diets, New Brunswick, N.J., USA) for 22 weeks were obtained from Charles River (France). Upon arrival, the mice were single-housed (one mouse per cage) and allowed to acclimate to their new environment for two weeks prior to the start of treatment.
(§4) Prior to initiation of the study, animals were single-housed and acclimated to handling for 7 days. The DIO mice were distributed into groups (n=8/group) such that statistical variations in the mean and standard deviations of fat mass and body weight were minimized between groups. Animals were dosed once daily, subcutaneously with either vehicle or test compound.
(§5) All compounds in the study were formulated in the following buffer: 50 mM phosphate; 70 mM sodium chloride; 0.05% polysorbate 80, pH 7.4. Dosing solutions were formulated in glass vials and stored at 2-8° C. Dosing solutions were brought to room temperature before dosing and returned to 2-8° C. after dosing.
Body weight (BW) and food intake were measured immediately prior to dosing each day. The average starting body weight of the mice prior to start of treatment was 45.2±0.2 grams.

[2] = tested on: diet-induced obese (DIO) mice; assay: Sub-chronic in vivo study in obese mice: IPGTT (intraperitoneal glucose tolerance test); set-up: species or system C57BL/6J mice; conditions: for effect on glucose tolerance (in words): DIO mice, Tables 6-8, compound 47 2 nmol/kg, GIP derivatives 30 nmol/kg; for iAUC, IPGTT (mM*min) Day 15: i.p. glucose 2 g/kg, 4 h fasted, baseline subtracted AUC, mean ± SEM
Source text: as §1, §2, §3, §4, §5
On the day of the glucose tolerance test (day 15), animals were fasted for 4 h. Food was removed and animals were transferred to fresh cages. Animals had access to water but not to food. Tail blood glucose levels were measured and mice were injected (t=0) with an intra-peritoneal (i.p.) glucose load of 2 g/kg (200 mg/ml glucose solution, dose volume 10 ml/kg). Tail blood glucose levels were measured at times 0, 15, 30, 60, 90, 120 minutes following the i.p. glucose load. Stratification of the animals during the IPGTT was such that for example two mice from group 1 are dosed followed by two mice from group 2, 3, 4, before the next two mice from group 1, 2, 3 etc. were handled. This was to allow for equal distribution of “time of day” throughout all groups.

human GIP receptor = biological target: T1, human GIP receptor (Homo sapiens, UniProt P48546); assay: In vitro potency (CRE luciferase; whole cells), BHK CRE luc2P hGIPR; type: cell-based; conditions: 0.2% HSA
T1 construct: expressed in transfected cells; host or cells: BHK (parent line BHKTS13), BHK CRE luc2P hGIPR clone #5
T1 sequence (P48546 22-466): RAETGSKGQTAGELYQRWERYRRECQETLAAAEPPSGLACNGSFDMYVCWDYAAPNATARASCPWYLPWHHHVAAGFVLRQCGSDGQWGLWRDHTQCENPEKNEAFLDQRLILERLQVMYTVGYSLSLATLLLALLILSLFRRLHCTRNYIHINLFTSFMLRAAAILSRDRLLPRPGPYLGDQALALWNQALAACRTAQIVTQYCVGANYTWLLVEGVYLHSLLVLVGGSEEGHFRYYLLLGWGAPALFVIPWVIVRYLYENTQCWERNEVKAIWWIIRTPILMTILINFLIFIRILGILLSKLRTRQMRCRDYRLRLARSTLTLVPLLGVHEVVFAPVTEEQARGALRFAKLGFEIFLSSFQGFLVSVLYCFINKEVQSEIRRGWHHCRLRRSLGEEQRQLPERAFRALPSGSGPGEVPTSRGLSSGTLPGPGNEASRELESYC
Method: In Vitro Potency (CRE Luciferase; Whole Cells)
The in vitro potency is the measure of human GIP, GLP-1 or glucagon receptor activation, respectively, in a whole cell assay.
In vitro potency was determined by measuring the response of the human GIP, GLP-1 or glucagon receptor in a reporter gene assay in individual cell lines. […] When the respective receptor is activated it results in the production of cAMP, which in turn results in the luciferase protein being expressed. When assay incubation is completed the luciferase substrate (luciferin) is added and the enzyme converts luciferin to oxyluciferin to produce bioluminescence. The luminescence is measured as the readout for the assay.
The cells were derived from a clone containing the CRE luciferase element and were established by further transfection with the respective receptor to obtain the current clone.
The cells were cultured at 5% CO2 in Cell Culture Medium. They were aliquoted and stored in liquid nitrogen. The cells were kept in passage and were seeded out the day before each assay.
The Assay Buffer consisted of 1% ovalbumin and 0.1% Pluronic F-68 in Assay Medium with the addition of human serum albumin at twice the indicated concentrations.
1) Cells were plated at 5000 cells/well and incubated overnight.
2) Cells were washed three times in PBS.
3) Assay Medium (50 μl aliquot) with or without serum albumin was added to each well in the assay plate.
4) Stocks of the test compounds and reference compounds were diluted to a concentration of 0.2 μM in Assay Buffer. […] 8) The cells were washed three times with PBS plus some liquid in each well. 9) A 100 μl aliquot of steadylite plus reagent was added to each well of the assay plate (reagent was light sensitive). 10) Each assay plate was covered with aluminum foil to protect it from light and shaken for 30 min at room temperature. 11) Each assay plate was read in a microtiter plate reader. Calculations and Results
The data from the microtiter plate reader was transferred to GraphPad Prism software. The software performs a non-linear regression (log(agonist) vs response).
A minimum of two replicates was measured for each sample. The reported values are averages of the replicates.

[3] = Study 1, 47 2 nmol/kg and/or 5 30 nmol/kg
[4] = Study 2, compound no. 47 2 nmol/kg and/or compound no. 25 30 nmol/kg
[5] = Study 2, 47 2 nmol/kg and/or 25 30 nmol/kg
[6] = Study 3, 47 2 nmol/kg, 31 30 nmol/kg

For “N^6,26-{18-[N-(17-carboxyheptadecanoyl)-D-γ-glutamyl]-10-oxo-3,6,12,15-tetraoxa-9,18-diazaoctadecanoyl}-[8-(2-amino-2-propanoic acid), 34-L-arginine]human glucagon-like peptide 1(7-37) [Compound 47]”, the “effect on body weight (in words)” value [1] was “body weight loss”, the “effect on food intake (in words)” value [1] was “reduction in food intake” and the “Cumulative food intake (kcals) Day 14” value ([1]; Study 1, compound no. 47 2 nmol/kg and/or compound no. 5 30 nmol/kg) was 146.3 ± 6.8 ^b kcals. For the same molecule, the “Absolute BW (grams) Day 0” value ([1]; Study 1) was 44.4 ± 1.0 ^a grams, the “Absolute BW (grams) Day 14” value [1, 3] was 38.5 ± 1.2 ^bc grams and the “Change in BW (%) Day 14” value [1, 3] was −13.2 ± 3.3 ^c %. For the same molecule, the “Cumulative food intake (kcals) Day 14” value [1, 4] was 134.9 ± 4.3 ^b kcals, the “Absolute BW (grams) Day 0” value ([1]; Study 2) was 40.2 ± 1.2 ^a grams and the “Absolute BW (grams) Day 14” value [1, 5] was 34.8 ± 1.2 ^b grams. For the same molecule, the “Change in BW (%) Day 14” value [1, 5] was −13.6 ± 0.7 ^c %, the “Cumulative food intake (kcals) Day 14” value ([1]; Study 3, compound no. 47 2 nmol/kg and GIP compound no. 31 30 nmol/kg) was 140.2 ± 6.7 ^b kcals and the “Absolute BW (grams) Day 0” value ([1]; Study 3) was 45.2 ± 1.4 ^a grams. For the same molecule, the “Absolute BW (grams) Day 14” value [1, 6] was 40.0 ± 1.3 ^a grams, the “Change in BW (%) Day 14” value [1, 6] was −11.2 ± 1.6 ^c % and the “effect on glucose tolerance (in words)” value [2] was “improvement in glucose tolerance”. The “iAUC, IPGTT (mM*min) Day 15” value [2, 3] was 543 ± 94 ^a mM*min, the “iAUC, IPGTT (mM*min) Day 15” value [2, 5] was 503 ± 55 ^b mM*min and the “iAUC, IPGTT (mM*min) Day 15” value [2, 6] was 1441 ± 135 ^c mM*min.

“N{1}-acetyl,N{Epsilon-24}-[(4S)-4-carboxy-4-[[(4S)-4-carboxy-4-[[(4S)-4-carboxy-4-[[4-[(19-carboxynonadecanoylamino)methyl]cyclohexanecarbonyl]amino]butanoyl]-amino]butanoyl]amino]butanoyl]-[D-Tyr1,Nle14,Arg18,Aib20,Lys24]-hGIP(1-31) [Compound 25]” was tested, and the “effect on body weight (in words)” value [1] was “minor body weight loss”, the “effect on food intake (in words)” value [1] was “minor effect on food intake” and the “Cumulative food intake (kcals) Day 14” value [1, 4] was 170.2 ± 7.3 ^b kcals. For the same molecule, the “Absolute BW (grams) Day 0” value ([1]; Study 2) was 41.1 ± 1.0 ^a grams, the “Absolute BW (grams) Day 14” value [1, 5] was 38.8 ± 1.0 ^a grams and the “Change in BW (%) Day 14” value [1, 5] was −5.6 ± 0.8 ^b %. For the same molecule, the “effect on glucose tolerance (in words)” value [2] was “improved glucose tolerance” and the “iAUC, IPGTT (mM*min) Day 15” value [2, 5] was 518 ± 36 ^b mM*min.

For `CC[C@H](C)[C@H](NC(=O)[C@H](CO)NC(=O)[C@H](Cc1ccc(O)cc1)NC(=O)[C@H](CC(=O)O)NC(=O)[C@H](CO)NC(=O)[C@@H](NC(=O)[C@H](Cc1ccccc1)NC(=O)[C@@H](NC(=O)CNC(=O)[C@H](CCC(=O)O)NC(=O)[C@H](C)NC(=O)[C@@H](Cc1ccc(O)cc1)NC(C)=O)[C@@H](C)O)[C@@H](C)CC)C(=O)N[C@@H](C)C(=O)N[C@@H](CC(=O)O)C(=O)N[C@@H](CC(=O)O)C(=O)N[C@@H](CCCCN)C(=O)N[C@H](C(=O)N[C@@H](CCCNC(=N)N)C(=O)N[C@@H](CCC(N)=O)C(=O)N[C@@H](CCC(=O)O)C(=O)N[C@@H](CC(=O)O)C(=O)N[C@@H](Cc1ccccc1)C(=O)N[C@H](C(=O)N[C@@H](CCCCNC(=O)COCCOCCNC(=O)COCCOCCNC(=O)CC[C@H](NC(=O)CCCCCCCCCCCCCCCCC(=O)O)C(=O)O)C(=O)N[C@@H](Cc1c[nH]c2ccccc12)C(=O)N[C@@H](CC(C)C)C(=O)N[C@@H](CC(C)C)C(=O)N[C@@H](C)C(=O)N[C@@H](CCC(N)=O)C(=O)N[C@@H](CCCCN)C(=O)NCC(=O)O)C(C)C)[C@@H](C)CC` [Compound 19, N{1}-acetyl,N{Epsilon-24}-[2-[2-[2-[[2-[2-[2-[[(4S)-4-carboxy-4-(17-carboxyheptadecanoylamino)butanoyl]amino]ethoxy]ethoxy]acetyl]amino]ethoxy]ethoxy]acetyl]-[D-Tyr1,Asp14,Arg18,Glu20, Lys24]-hGIP(1-31)] (Ac-[dY]AEGTFISDYSIADDKIRQEDFVK([AEEA-AEEA-γGlu-C18 diacid])WLLAQKG-OH; C-terminus assumed), the EC50 (human GIP receptor) was 91.5 pM.
